Results from patent US20150087627A1, “COMBINATION OF KINASE INHIBITORS AND USES THEREOF” (Intellikine LLC, priority 2011, published 2015).
Where two headings read alike, the source gives them in different places.

Tests used:
Format in all cases: biochemical
mTOR = target: T1, mTOR (Homo sapiens, UniProt P42345); assay: mTOR kinase inhibition assay (radiometric or LanthaScreen TR-FRET); conditions: read-out: mTORC IC50
T1 construct: purchased Invitrogen
Method: The cross-activity or lack thereof of one or more compounds of the present invention against mTor can be measured according to any procedures known in the art or methods disclosed below.
The compounds described herein can be tested against recombinant mTOR (Invitrogen) in an assay containing 50 mM HEPES, pH 7.5, 1 mM EGTA, 10 mM MgCl2, 2.5 mM, 0.01% Tween, 10 μM ATP (2.5 μCi of μ-32P-ATP), and 3 μg/mL BSA. Rat recombinant PHAS-1/4EBP1 (Calbiochem; 2 mg/mL) is used as a substrate. Reactions are terminated by spotting onto nitrocellulose, which is washed with 1M NaCl/1% phosphoric acid (approximately 6 times, 5-10 minutes each). Sheets are dried and the transferred radioactivity quantitated by phosphorimaging.
For instance, one can use Invitrogen's LanthaScreen™ Kinase assay to test the inhibitors of mTOR disclosed herein. This assay is a time resolved FRET platform that measures the phosphorylation of GFP labeled 4EBP1 by mTOR kinase. The kinase reaction is performed in a white 384 well microtiter plate. The total reaction volume is 20 ul per well and the reaction buffer composition is 50 mM HEPES pH7.5, 0.01% Polysorbate 20, 1 mM EGTA, 10 mM MnCl2, and 2 mM DTT. In the first step, each well receives 2 ul of test compound in 20% dimethylsulphoxide resulting in a 2% DMSO final concentration. […] The plate is sealed and incubated for 1 hour at room temperature. […] The plate is sealed, incubated for 1 hour at room temperature, and then read on a plate reader set up for LanthaScreen™ TR-FRET. Data is analyzed and IC50s are generated using GraphPad Prism 5.

PI3K α (p110α/p85α) = target: T2, PI3K α (p110α/p85α) (Homo sapiens, UniProt P42336); assay: PI 3-Kinase (human) HTRF assay, PI3K α; conditions: read-out: PI3K α IC50
T2 construct: purchased Upstate / Millipore Corporation
T2 sequence (P42336 whole entry): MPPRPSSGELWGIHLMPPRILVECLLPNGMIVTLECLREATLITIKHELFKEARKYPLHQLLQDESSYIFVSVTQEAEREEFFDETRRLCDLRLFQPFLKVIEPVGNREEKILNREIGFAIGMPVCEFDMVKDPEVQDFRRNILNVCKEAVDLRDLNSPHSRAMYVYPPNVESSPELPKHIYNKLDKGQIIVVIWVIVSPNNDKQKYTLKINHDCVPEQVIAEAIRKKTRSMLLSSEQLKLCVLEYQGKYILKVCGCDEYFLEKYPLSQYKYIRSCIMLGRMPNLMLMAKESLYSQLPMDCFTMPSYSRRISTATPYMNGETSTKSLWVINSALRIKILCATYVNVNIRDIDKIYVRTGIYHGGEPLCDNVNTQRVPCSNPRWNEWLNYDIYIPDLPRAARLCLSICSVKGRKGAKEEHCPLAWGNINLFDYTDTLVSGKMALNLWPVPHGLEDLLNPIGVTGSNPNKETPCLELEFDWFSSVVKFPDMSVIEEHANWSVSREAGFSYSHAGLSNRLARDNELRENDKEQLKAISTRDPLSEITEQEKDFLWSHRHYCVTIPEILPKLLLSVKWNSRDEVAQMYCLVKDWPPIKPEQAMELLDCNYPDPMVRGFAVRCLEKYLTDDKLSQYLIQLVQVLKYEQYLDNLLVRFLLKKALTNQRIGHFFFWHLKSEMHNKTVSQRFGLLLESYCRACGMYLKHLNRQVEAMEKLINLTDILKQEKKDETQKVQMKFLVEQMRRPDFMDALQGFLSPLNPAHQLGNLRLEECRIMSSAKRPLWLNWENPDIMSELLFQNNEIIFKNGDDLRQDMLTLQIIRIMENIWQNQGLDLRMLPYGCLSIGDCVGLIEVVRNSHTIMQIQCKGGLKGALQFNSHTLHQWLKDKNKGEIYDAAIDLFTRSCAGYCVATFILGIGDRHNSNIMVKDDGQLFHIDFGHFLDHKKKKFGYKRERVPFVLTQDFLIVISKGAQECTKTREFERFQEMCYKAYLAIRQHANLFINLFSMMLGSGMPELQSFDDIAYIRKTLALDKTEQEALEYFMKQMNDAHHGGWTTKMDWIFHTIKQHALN
T2 sequence (P27986 whole entry partner): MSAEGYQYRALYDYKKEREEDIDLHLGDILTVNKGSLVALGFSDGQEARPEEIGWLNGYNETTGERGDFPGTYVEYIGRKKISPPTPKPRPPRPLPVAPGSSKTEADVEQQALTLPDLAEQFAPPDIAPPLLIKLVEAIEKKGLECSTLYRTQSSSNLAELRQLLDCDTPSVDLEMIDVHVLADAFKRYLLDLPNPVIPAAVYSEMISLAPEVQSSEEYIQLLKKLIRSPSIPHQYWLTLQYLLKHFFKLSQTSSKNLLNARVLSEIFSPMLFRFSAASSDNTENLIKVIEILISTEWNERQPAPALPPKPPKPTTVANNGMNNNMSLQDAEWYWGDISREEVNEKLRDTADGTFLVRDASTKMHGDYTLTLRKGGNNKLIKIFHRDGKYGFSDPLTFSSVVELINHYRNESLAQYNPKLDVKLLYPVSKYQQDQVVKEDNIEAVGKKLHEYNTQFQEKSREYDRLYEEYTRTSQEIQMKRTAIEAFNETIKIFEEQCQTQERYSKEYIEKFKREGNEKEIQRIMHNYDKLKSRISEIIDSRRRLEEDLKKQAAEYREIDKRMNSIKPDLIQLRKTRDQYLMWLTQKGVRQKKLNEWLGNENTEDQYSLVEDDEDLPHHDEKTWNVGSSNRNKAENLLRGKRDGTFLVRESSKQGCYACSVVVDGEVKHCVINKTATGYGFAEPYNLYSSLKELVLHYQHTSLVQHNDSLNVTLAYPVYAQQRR

PI3K δ = target: T3, PI3K δ (Homo sapiens, UniProt O00329); assay: PI 3-Kinase (human) HTRF assay, PI3K δ; conditions: read-out: PI3K δ IC50
T3 construct: purchased Upstate / Millipore Corporation
T3 sequence (O00329 whole entry): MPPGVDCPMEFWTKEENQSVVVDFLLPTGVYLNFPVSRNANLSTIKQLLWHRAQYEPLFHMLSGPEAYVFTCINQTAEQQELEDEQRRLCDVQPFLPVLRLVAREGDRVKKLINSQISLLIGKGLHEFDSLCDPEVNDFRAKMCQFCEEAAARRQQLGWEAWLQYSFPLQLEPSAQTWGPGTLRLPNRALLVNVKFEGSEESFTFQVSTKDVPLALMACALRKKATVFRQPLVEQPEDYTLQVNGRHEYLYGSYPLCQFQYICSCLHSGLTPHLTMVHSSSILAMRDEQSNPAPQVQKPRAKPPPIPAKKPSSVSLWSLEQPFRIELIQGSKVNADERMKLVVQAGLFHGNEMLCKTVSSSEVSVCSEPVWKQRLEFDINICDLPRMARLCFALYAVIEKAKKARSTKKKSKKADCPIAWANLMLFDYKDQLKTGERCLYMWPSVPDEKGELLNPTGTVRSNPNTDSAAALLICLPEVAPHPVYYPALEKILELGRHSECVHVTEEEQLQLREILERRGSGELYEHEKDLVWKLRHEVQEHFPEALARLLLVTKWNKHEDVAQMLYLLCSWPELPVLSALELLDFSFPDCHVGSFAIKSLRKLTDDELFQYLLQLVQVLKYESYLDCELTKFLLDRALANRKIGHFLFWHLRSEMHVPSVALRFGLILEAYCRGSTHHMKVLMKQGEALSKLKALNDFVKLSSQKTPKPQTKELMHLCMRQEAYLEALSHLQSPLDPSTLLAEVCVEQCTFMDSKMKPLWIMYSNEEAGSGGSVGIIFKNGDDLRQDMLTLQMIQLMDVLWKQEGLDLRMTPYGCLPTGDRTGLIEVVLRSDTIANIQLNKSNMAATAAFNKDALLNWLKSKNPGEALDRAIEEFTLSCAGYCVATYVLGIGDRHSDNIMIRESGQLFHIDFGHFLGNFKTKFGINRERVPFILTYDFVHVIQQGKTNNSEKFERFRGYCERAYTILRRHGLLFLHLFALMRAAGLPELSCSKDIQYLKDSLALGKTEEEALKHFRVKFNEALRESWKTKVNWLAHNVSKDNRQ
T3 sequence (P27986 whole entry partner): as the sequence (P27986 whole entry partner) above

PI3K β (p110β/p85α) = target: T4, PI3K β (p110β/p85α) (Homo sapiens, UniProt P42338); assay: PI 3-Kinase (human) HTRF assay, PI3K β; conditions: read-out: PI3K β IC50
T4 construct: purchased Upstate / Millipore Corporation
T4 sequence (P42338 whole entry): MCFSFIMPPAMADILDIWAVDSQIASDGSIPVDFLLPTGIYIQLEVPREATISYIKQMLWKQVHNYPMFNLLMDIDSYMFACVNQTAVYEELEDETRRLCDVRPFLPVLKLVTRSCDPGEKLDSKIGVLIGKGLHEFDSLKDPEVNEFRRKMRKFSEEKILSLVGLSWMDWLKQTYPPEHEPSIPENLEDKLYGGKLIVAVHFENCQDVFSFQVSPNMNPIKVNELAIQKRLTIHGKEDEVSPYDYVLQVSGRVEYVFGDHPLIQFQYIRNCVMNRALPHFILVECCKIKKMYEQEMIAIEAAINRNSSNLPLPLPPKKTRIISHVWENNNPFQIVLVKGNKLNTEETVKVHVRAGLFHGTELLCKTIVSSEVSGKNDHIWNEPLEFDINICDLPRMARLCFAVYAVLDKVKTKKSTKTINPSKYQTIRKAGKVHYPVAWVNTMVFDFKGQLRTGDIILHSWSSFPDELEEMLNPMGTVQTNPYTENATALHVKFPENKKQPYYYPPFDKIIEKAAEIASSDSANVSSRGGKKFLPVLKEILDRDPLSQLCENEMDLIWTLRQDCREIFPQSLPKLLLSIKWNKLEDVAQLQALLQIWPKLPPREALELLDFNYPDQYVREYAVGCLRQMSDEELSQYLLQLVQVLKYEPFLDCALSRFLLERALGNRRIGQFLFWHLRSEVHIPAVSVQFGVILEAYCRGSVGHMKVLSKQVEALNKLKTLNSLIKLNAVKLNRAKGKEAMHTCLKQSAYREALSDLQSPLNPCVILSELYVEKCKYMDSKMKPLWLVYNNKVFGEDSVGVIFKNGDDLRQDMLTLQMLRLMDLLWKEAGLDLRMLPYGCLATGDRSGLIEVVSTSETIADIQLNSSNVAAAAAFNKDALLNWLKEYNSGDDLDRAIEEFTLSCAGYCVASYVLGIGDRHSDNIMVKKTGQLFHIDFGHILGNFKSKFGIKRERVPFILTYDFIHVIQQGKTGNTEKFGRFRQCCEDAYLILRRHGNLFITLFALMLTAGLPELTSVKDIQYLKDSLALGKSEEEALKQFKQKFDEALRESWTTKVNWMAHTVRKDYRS
T4 sequence (P27986 whole entry partner): as the sequence (P27986 whole entry partner) above

PI3K γ (p110γ) = target: T5, PI3K γ (p110γ) (Homo sapiens, UniProt P48736); assay: PI 3-Kinase (human) HTRF assay, PI3K γ; conditions: read-out: PI3K γ IC50
T5 construct: purchased Upstate / Millipore Corporation
T5 sequence (P48736 whole entry): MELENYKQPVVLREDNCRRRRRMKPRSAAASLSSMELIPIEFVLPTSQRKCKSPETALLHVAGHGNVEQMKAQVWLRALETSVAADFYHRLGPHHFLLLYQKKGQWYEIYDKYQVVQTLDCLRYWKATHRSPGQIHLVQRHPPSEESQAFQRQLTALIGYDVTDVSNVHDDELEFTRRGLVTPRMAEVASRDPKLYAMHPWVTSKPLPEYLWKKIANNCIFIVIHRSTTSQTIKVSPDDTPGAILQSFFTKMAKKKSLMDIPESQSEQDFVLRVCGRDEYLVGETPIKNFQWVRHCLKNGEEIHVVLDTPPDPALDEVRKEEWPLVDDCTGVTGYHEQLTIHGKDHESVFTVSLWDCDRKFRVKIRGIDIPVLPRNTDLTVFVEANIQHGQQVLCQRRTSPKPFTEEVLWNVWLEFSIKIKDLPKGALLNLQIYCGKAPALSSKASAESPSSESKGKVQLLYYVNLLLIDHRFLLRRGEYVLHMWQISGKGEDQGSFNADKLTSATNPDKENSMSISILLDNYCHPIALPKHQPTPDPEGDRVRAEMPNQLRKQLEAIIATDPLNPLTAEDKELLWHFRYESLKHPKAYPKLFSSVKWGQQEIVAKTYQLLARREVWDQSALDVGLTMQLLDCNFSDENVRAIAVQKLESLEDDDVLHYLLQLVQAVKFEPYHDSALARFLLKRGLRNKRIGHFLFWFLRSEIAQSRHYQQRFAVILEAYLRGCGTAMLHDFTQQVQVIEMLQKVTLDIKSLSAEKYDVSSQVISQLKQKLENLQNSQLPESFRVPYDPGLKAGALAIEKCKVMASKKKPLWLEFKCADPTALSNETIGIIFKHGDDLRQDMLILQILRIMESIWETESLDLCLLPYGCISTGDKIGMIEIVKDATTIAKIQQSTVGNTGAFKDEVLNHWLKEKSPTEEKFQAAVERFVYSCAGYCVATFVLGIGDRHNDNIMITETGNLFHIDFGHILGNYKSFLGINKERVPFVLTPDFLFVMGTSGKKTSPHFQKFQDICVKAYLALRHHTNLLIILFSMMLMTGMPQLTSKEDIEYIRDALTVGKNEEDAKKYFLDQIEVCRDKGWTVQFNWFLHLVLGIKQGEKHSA

Structure (SMILES)	IC50 (PI3K α (p110α/p85α); Table 4 (PI3K α inhibitors)) [nM]	IC50 (PI3K β (p110β/p85α); Table 4 (PI3K α inhibitors)) [nM]	IC50 (PI3K γ (p110γ); Table 4 (PI3K α inhibitors)) [nM]	IC50 (PI3K δ; Table 4 (PI3K α inhibitors)) [nM]	IC50 (mTOR; Table 4 (PI3K α inhibitors)) [nM]	other results
Nc1nc2cc(-c3ccc4ncc(-c5ccnc(N6CCOCC6)c5)n4c3)ccc2o1 [Compound 52]						IC50 (mTOR): < 10000 nM; IC50 (PI3K α (p110α/p85α)): < 100 nM; IC50 (PI3K δ): < 100 nM
N#Cc1cnc2ccc(-c3ccc4oc(N)nc4c3)cc2c1Cl [Compound 77]						IC50 (mTOR): < 1000 nM
Nc1nc2cc(-c3ccc4oc(N)nc4c3)ccc2o1 [Compound 240]						IC50 (mTOR): < 10000 nM; IC50 (PI3K α (p110α/p85α)): < 1000 nM; IC50 (PI3K δ): < 10000 nM
Cc1cc(-c2ccc3nc(N)oc3c2)cn2c(CN3CCN(C)CC3)nnc12 [Compound 549]						IC50 (PI3K α (p110α/p85α)): > 10000 nM; IC50 (PI3K β (p110β/p85α)): > 10000 nM; IC50 (PI3K γ (p110γ)): > 10000 nM; IC50 (PI3K δ): > 10000 nM
Nc1nc2cc(-c3ccc4ncc(C(=O)NCCOCC(=O)O)n4c3)ccc2o1 [Compound 551]						IC50 (PI3K α (p110α/p85α)): < 100 nM; IC50 (PI3K β (p110β/p85α)): < 1000 nM; IC50 (PI3K γ (p110γ)): < 100 nM; IC50 (PI3K δ): < 10000 nM
Nc1nc2cc(-c3ccc4nc(N5CCOCC5)cnc4n3)ccc2o1 [Compound 558]	> 10000	> 10000	> 10000	> 10000		
Nc1nc2cc(-c3ccc4ncc(N5CCC(F)(F)CC5)nc4n3)ccc2o1 [Compound 564]	< 100	> 10000	< 100	> 10000		
CC1(C)CN(C2CN(c3cnc4ccc(-c5ccc6oc(N)nc6c5)nc4n3)C2)CCO1 [Compound 568]	< 1000	> 10000	< 10000	> 10000		
Nc1nc2cc(-c3ccc4ncc(N5CCOCC5)cc4n3)ccc2o1 [Compound 573]	< 100	< 1000	< 100	> 10000		
C[C@H](N)C(=O)N1CCN(c2cnc3ccc(-c4ccc5oc(N)nc5c4)nc3n2)CC1 [Compound 581]	< 100	< 100	< 100	< 100		
Nc1nc2cc(-c3ccc4ncc(N5CC(N6CCNCC6)C5)nc4n3)ccc2o1 [Compound 585]	< 1000	> 10000	> 10000	> 10000		
Nc1nc2cc(-c3ccc4ncc(N5CC(N6CCN(CC7CC7)CC6)C5)nc4n3)ccc2o1 [Compound 586]	< 100				> 10000	
C[C@H](N)C(=O)N1CCN(c2cnc3ccc(-c4ccc5oc(N)nc5c4)nc3c2)CC1 [Compound 589]	< 100	< 1000	< 1000	< 1000		
C[C@@H](N)C(=O)N1CCN(c2cnc3ccc(-c4ccc5oc(N)nc5c4)nc3c2)CC1 [Compound 590]	< 100	< 100	< 1000	< 1000		
CC(C)(N)C(=O)N1CCN(c2cnc3ccc(-c4ccc5oc(N)nc5c4)nc3n2)CC1 [Compound 591]	< 100				> 10000	
Nc1nc2cc(-c3ccc4ncc(N5CCN(C(=O)C6(N)CC6)CC5)cc4n3)ccc2o1 [Compound 593]	< 100	< 1000	< 100	< 1000		
Nc1nc2cc(-c3ccc4ncc(N5CC(N6CCN(CCO)CC6)C5)nc4n3)ccc2o1 [Compound 597]	< 100				> 10000	
Cc1nccn1C1CN(c2cnc3ccc(-c4ccc5oc(N)nc5c4)nc3n2)C1 [Compound 601]	< 100				> 10000	
CC1(C)CN(C2CN(c3cnc4ccc(-c5ccc6oc(N)nc6c5)nc4n3)C2)CCN1 [Compound 603]	< 100			< 1000	> 10000	
C[C@H]1CN(C2CN(c3cnc4ccc(-c5ccc6oc(N)nc6c5)nc4c3)C2)CCN1 [Compound 605]	< 100			< 1000	> 10000	
Nc1nc2cc(-c3ccc4ncc(N5CC(N6CCN(CC7CC7)CC6)C5)cc4n3)ccc2o1 [Compound 611]	< 100			< 1000	> 10000	
CN1CCN(C2CN(c3cnc4ccc(-c5ccc6oc(N)nc6c5)nc4n3)C2)CC1 [Compound 622]	< 100			< 1000	> 10000	
CCN1CCN(C2CN(c3cnc4ccc(-c5ccc6oc(N)nc6c5)nc4n3)C2)CC1 [Compound 627]	< 100				< 10000	
